From publication PMC11882969 (Nature Communications, 2025)
Where “and” joins values, the source holds several entries; their conditions need not be identical. Equal values may be shown once. Read-outs that look alike come from different tables or passages of the source.

Tests used:
[1] = Pharmacokinetics: plasma, brain, CSF
[2] = test system: mice; test: Catalepsy test, vertical wire mesh; type: in vivo, mouse
Experimental: Thirty min after an i.p. injection of the compounds, mice were placed on a vertical wire mesh and the latency to move all four paws was recorded.

[3] = molecular target: T1, CB1 (rCB1) (Rattus norvegicus, UniProt P20272); test: Radioligand competition binding, [3H]-CP-55,940, rat brain membranes
[4] = molecular target: T1, CB1 (rCB1); test: Single-point radioligand displacement screen; type: binding; conditions: 10 µM, 1 µM or 300 nM by cell colour (not visible)
[5] = molecular target: hCB1 (Homo sapiens, UniProt P21554); test: bioSensAll ebBRET signaling profiling, hCB1; type: cell-based; design: host or cells: HEK293SL cells, transient PEI transfection; conditions: for Gi1 hCB1 response: Gi1 biosensor; for Gi1 hCB1 / GoB hCB1: single replicate values, FigS6a; for EC50: read-out: EC50 [95% CI]; for Emax: normalized to CP-55,940
[6] = molecular target: T2, human PTH receptor (PTHR) (Homo sapiens, UniProt Q03431); test: Gs bioSens-All control assay; type: cell-based; conditions: raw signal, log[PTH]
T2 construct: expressed in transfected cells; host or cells: HEK293 (HEK293SL) cells, transient co-transfection with the Gαs biosensor
T2 sequence (Q03431 27-593): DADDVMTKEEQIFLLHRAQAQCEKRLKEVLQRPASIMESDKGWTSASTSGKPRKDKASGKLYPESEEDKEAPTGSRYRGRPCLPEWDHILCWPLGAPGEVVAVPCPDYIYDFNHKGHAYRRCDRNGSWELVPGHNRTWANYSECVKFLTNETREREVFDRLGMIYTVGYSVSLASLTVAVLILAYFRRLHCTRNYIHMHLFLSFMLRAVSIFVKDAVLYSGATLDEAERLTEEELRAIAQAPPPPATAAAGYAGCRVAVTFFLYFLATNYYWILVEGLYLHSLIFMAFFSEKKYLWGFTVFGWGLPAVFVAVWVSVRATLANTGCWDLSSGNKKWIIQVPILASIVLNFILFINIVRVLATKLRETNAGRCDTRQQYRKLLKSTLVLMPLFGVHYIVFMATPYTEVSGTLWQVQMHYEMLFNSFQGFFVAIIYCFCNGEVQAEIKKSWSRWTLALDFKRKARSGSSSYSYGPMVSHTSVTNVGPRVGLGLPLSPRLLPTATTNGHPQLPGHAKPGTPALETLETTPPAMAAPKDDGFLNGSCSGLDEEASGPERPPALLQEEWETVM
Description: Experimental data were produced in singleton and curves were fitted using the four-parameter logistic non-linear regression model (GraphPad Prism 9). Data are expressed as uBRET.

Sequence of hCB1 (P21554 whole entry): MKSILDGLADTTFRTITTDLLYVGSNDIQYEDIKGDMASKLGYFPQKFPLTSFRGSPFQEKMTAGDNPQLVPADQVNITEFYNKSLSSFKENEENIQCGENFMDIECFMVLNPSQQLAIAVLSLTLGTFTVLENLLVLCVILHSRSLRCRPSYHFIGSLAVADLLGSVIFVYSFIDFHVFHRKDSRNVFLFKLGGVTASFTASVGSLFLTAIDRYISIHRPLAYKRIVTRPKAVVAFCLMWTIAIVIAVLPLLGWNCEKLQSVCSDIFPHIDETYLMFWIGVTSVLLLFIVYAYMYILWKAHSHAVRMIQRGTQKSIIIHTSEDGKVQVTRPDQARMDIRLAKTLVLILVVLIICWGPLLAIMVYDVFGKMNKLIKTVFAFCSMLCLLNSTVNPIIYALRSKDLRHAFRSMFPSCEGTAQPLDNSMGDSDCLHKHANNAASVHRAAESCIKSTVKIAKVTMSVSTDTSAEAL
T1 sequence (P20272 whole entry): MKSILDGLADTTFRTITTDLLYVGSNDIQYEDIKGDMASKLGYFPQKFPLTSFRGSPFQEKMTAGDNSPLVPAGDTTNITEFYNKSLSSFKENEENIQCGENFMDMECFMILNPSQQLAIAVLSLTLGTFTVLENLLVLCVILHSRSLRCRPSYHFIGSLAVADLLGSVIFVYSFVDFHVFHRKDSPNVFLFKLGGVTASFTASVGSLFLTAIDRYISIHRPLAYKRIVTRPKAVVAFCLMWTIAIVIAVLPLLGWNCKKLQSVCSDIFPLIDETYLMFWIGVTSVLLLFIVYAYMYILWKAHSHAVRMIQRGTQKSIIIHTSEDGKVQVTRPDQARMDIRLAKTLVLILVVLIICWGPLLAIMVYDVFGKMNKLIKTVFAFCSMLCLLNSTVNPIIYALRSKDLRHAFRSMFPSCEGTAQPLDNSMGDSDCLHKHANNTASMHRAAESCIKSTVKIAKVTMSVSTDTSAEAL

Compound: CCCCCCC(C)(C)c1ccc([C@@H]2C[C@H](O)CC[C@H]2CCCO)c(O)c1 [CP55940]
- Brain, Mean ([1]; Time 1 min): 0
- CSF, Mean ([1]; Time 1 min): 0
- Plasma, Mean ([1]; Time 1 min): 0
- Brain, Mean ([1]; Time 5 min): 0
- CSF, Mean ([1]; Time 5 min): 0
- Plasma, Mean ([1]; Time 5 min): 21.5
- Brain, Mean ([1]; Time 15 min): 11.5
- CSF, Mean ([1]; Time 15 min): 0
- Plasma, Mean ([1]; Time 15 min): 47.5
- Brain, Mean ([1]; Time 30 min): 19.2
- CSF, Mean ([1]; Time 30 min): 0
- Plasma, Mean ([1]; Time 30 min): 48.4
- Brain, Mean ([1]; Time 60 min): 17.1
- CSF, Mean ([1]; Time 60 min): 0
- Plasma, Mean ([1]; Time 60 min): 26.7
- Brain, Mean ([1]; Time 120 min): 11.9
- CSF, Mean ([1]; Time 120 min): 0
- Plasma, Mean ([1]; Time 120 min): 10.6
- Brain, Mean ([1]; Time 240 min): 3.09
- CSF, Mean ([1]; Time 240 min): 0
- Plasma, Mean ([1]; Time 240 min): 2.6
- Brain, Mean ([1]; Time 360 min): 0
- CSF, Mean ([1]; Time 360 min): 0
- Plasma, Mean ([1]; Time 360 min): 0
- Brain, Mean ([1]; Time 480 min): 0
- CSF, Mean ([1]; Time 480 min): 0
- Plasma, Mean ([1]; Time 480 min): 0
- Brain, Mean ([1]; Time […]): 0
- CSF, Mean ([1]; Time […]): 0
- Plasma, Mean ([1]; Time […]): 0

Compound: O=C(CCCN1CCC(O)(c2ccc(Cl)cc2)CC1)c1ccc(F)cc1 [haloperidol, reference compound]
- catalepsy (Figure6c), individual animals ([2]; 1 mg/kg dose): 21 and 17 and 11.5 and 18 and 14
- catalepsy, latency to move all four paws ([2]; i.p., ‘1350 at 0.2 or 0.5 mg/kg, haloperidol 1.0 mg/kg): induced catalepsy

Compound: Cc1cc(C(=O)NC(c2ccccc2)c2ccco2)nn1-c1cccc(C#N)c1 (stereo not shown) [‘12565]
- pKi [95% CI] ([3]; rCB1): 6.5 [6.3 – 6.7]
- Ki ([3]; read-out: Ki [95% CI], rCB1, [3H]-CP-55,940): 301 nM
- % 1H-CP-55,940 displacement (mean) from single point screen [4]: 61.12%
- Gi1 hCB1 response ([5]; Log [Compound] (M) -4.22186): 51.3091
- Gi1 hCB1 response ([5]; Log [Compound] (M) -4.63927): 50.5034
- Gi1 hCB1 response ([5]; Log [Compound] (M) -5.05788): 44.5052
- Gi1 hCB1 response ([5]; Log [Compound] (M) -5.47381): 43.9457
- Gi1 hCB1 response ([5]; Log [Compound] (M) -5.89285): 42.849
- Gi1 hCB1 response ([5]; Log [Compound] (M) -6.31878): 33.2921
- Gi1 hCB1 response ([5]; Log [Compound] (M) -6.72585): 46.4524
- Gi1 hCB1 response ([5]; Log [Compound] (M) -7.14267): 19.6618
- Gi1 hCB1 response ([5]; Log [Compound] (M) -7.55284): 13.0593
- Gi1 hCB1 response ([5]; Log [Compound] (M) -8): 11.2688
- Gi1 hCB1 response ([5]; Log [Compound] (M) -8.22186): -3.794
- Gi1 hCB1 response ([5]; Log [Compound] (M) -8.39794): -8.2031
- Gi1 hCB1 response ([5]; Log [Compound] (M) -8.68787): -4.197
- Gi1 hCB1 response ([5]; Log [Compound] (M) -9.15521): -12.5675
- Gi1 hCB1 response ([5]; Log [Compound] (M) -9.61989): -10.195
- Gi1 hCB1 response ([5]; Log [Compound] (M) -10.0969): -5.294
- Gi1 hCB1 response ([5]; Log [Compound] (M) -10.5529): 14.9617
- Gi1 hCB1 response ([5]; Log [Compound] (M) -11.0177): -2.317
- Gi1 hCB1 response ([5]; Log [Compound] (M) -11.4949): 8.247
- Gi1 hCB1 response ([5]; Log [Compound] (M) -11.9208): -0.5263
- Gi1 hCB1 response ([5]; Log [Compound] (M) -12.3979): -10.9113
- Gi1 hCB1 response ([5]; Log [Compound] (M) -12.8861): -6.234
- Gi1 hCB1 response ([5]; Log [Compound] (M) -13, individual replicate values): 1.98 and -17.5585
- Gi1 hCB1 ([5]; Log [Compound] (M) -4.22186): 25.3414
- GoB hCB1 ([5]; Log [Compound] (M) -4.22186): 15.9048
- Gi1 hCB1 ([5]; Log [Compound] (M) -4.63927): 29.288
- GoB hCB1 ([5]; Log [Compound] (M) -4.63927): 18.0268
- Gi1 hCB1 ([5]; Log [Compound] (M) -5.05788): 28.8564
- GoB hCB1 ([5]; Log [Compound] (M) -5.05788): 28.8528
- Gi1 hCB1 ([5]; Log [Compound] (M) -5.47381): 27.1451
- GoB hCB1 ([5]; Log [Compound] (M) -5.47381): 28.2953
- Gi1 hCB1 ([5]; Log [Compound] (M) -5.89285): 25.0947
- GoB hCB1 ([5]; Log [Compound] (M) -5.89285): 22.0012
- Gi1 hCB1 ([5]; Log [Compound] (M) -6.31878): 21.0402
- GoB hCB1 ([5]; Log [Compound] (M) -6.31878): 26.4251
- Gi1 hCB1 ([5]; Log [Compound] (M) -6.72585): 17.7873
- GoB hCB1 ([5]; Log [Compound] (M) -6.72585): 22.6665
- Gi1 hCB1 ([5]; Log [Compound] (M) -7.14267): 12.2681
- GoB hCB1 ([5]; Log [Compound] (M) -7.14267): 15.689
- Gi1 hCB1 ([5]; Log [Compound] (M) -7.55284): 6.888
- GoB hCB1 ([5]; Log [Compound] (M) -7.55284): 4.557
- Gi1 hCB1 ([5]; Log [Compound] (M) -8): 2.772
- GoB hCB1 ([5]; Log [Compound] (M) -8): 1.9857
- Gi1 hCB1 ([5]; Log [Compound] (M) -8.22186): 1.492
- GoB hCB1 ([5]; Log [Compound] (M) -8.22186): -4.416
- Gi1 hCB1 ([5]; Log [Compound] (M) -8.39794): 0.9061
- GoB hCB1 ([5]; Log [Compound] (M) -8.39794): -0.9096
- Gi1 hCB1 ([5]; Log [Compound] (M) -8.68787): 1.4611
- GoB hCB1 ([5]; Log [Compound] (M) -8.68787): -4.902
- Gi1 hCB1 ([5]; Log [Compound] (M) -9.15521): 0.4436
- GoB hCB1 ([5]; Log [Compound] (M) -9.15521): -2.744
- Gi1 hCB1 ([5]; Log [Compound] (M) -9.61989): -1.406
- GoB hCB1 ([5]; Log [Compound] (M) -9.61989): -3.949
- Gi1 hCB1 ([5]; Log [Compound] (M) -10.0969): 0.8444
- GoB hCB1 ([5]; Log [Compound] (M) -10.0969): -5.531
- Gi1 hCB1 ([5]; Log [Compound] (M) -10.5529): -0.3889
- GoB hCB1 ([5]; Log [Compound] (M) -10.5529): 0.1334
- Gi1 hCB1 ([5]; Log [Compound] (M) -11.0177): -1.067
- GoB hCB1 ([5]; Log [Compound] (M) -11.0177): 0.2053
- Gi1 hCB1 ([5]; Log [Compound] (M) -11.4949): 0.2894
- GoB hCB1 ([5]; Log [Compound] (M) -11.4949): -1.809
- Gi1 hCB1 ([5]; Log [Compound] (M) -11.9208): -1.221
- GoB hCB1 ([5]; Log [Compound] (M) -11.9208): -1.251
- Gi1 hCB1 ([5]; Log [Compound] (M) -12.3979): 0.4282
- GoB hCB1 ([5]; Log [Compound] (M) -12.3979): 0.1334
- Gi1 hCB1 ([5]; Log [Compound] (M) -12.8861): 1.43
- GoB hCB1 ([5]; Log [Compound] (M) -12.8861): -3.211
- Gi1 hCB1 ([5]; Log [Compound] (M) -13): 1.507 and -0.6201
- GoB hCB1 ([5]; Log [Compound] (M) -13): -3.409 and -2.942
- pEC50 [95% CI] ([5]; hCB1 Gi1): 7.0 [6.9 – 7.1]
- pEC50 [95% CI] ([5]; hCB1 GoB): 7.4 [7.1 – 7.6]
- pEC50 [95% CI] ([5]; hCB1 Gz): 7.3 [6.9 – 7.7]
- EC50 ([5]; hCB1 Gi1): 104 nM
- EC50 ([5]; hCB1 GoB): 44.8 nM
- EC50 ([5]; hCB1 Gz): 54.6 nM
- Emax ([5]; read-out: Emax [95% CI], hCB1 Gi1): 28%
- Emax ([5]; read-out: Emax [95% CI], hCB1 GoB): 25%
- Emax ([5]; read-out: Emax [95% CI], hCB1 Gz): 51%

Compound: PTH
- PTH control response ([6]; M -6.22186): 5622
- PTH control response ([6]; M -6.53946): 5653
- PTH control response ([6]; M -6.85696): 5394
- PTH control response ([6]; M -7.17551): 5221
- PTH control response ([6]; M -7.49499): 5149
- PTH control response ([6]; M -7.80694): 5011
- PTH control response ([6]; M -8.11922): 4856
- PTH control response ([6]; M -8.44613): 4893
- PTH control response ([6]; M -8.76448): 5167
- PTH control response ([6]; M -9.07573): 5440
- PTH control response ([6]; M -9.22186): 6053
- PTH control response ([6]; M -9.39794): 5806
- PTH control response ([6]; M -9.68787): 6475
- PTH control response ([6]; M -10.1552): 7581
- PTH control response ([6]; M -10.6199): 8362
- PTH control response ([6]; M -11.0969): 9720
- PTH control response ([6]; M -11.5529): 9963
- PTH control response ([6]; M -12.0177): 10394
- PTH control response ([6]; M -12.4948): 10587
- PTH control response ([6]; M -12.9208): 10667
- PTH control response ([6]; M -13.3979): 10336
- PTH control response ([6]; M -13.8861): 10932
- PTH control response ([6]; M -14): 11358 and 10843
